From patent EP2041131B1, “AZAINDOLE DERIVATIVES WITH A COMBINATION OF PARTIAL NICOTINIC ACETYLCHOLINE RECEPTOR AGONISM AND DOPAMINE REUPTAKE INHIBITION” (Abbott Healthcare Products B.V., priority 2006, dated 2008)
Read-outs that look alike come from different tables or passages of the source.

Tests used:
rat striatal slices = assay: In vitro [^3H]-Dopamine release; type: cell-based
dopamine uptake sites = target: T1, dopamine uptake sites (Rattus norvegicus, UniProt P23977); assay: In vitro [^3H]-Dopamine uptake in striatal synaptosomes; type: biochemical
T1 construct: the striatum was rapidly removed and a crude synaptosomal fraction (P2) was prepared; from tissue; host or cells: rat striatum, crude synaptosomal fraction (P2)
T1 sequence (P23977 whole entry): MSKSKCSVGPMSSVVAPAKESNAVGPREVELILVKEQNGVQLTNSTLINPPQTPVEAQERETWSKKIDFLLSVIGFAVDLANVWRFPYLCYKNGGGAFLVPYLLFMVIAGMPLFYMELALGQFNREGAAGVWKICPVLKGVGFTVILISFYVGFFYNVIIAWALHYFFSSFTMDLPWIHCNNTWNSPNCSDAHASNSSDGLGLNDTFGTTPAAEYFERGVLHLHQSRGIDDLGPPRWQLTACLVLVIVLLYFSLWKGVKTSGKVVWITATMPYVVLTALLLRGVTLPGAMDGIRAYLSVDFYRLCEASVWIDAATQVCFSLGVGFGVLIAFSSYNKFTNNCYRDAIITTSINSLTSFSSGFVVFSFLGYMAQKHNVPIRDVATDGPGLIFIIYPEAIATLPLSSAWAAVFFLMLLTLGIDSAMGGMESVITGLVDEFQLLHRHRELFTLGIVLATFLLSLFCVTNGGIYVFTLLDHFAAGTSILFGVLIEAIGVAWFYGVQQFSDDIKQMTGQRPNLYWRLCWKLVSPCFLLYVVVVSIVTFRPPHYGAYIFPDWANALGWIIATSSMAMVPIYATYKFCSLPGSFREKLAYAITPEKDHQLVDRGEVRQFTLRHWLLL
Experimental: Subsequently, [^3H]-dopamine (2x10^-7 M final concentration) was added and incubation was continued for 10 min. [^3H]-dopamine uptake was stopped by filtration and the synaptosomes were washed four times with phosphate buffered saline. The amount of [^3H]-dopamine in the synaptosomes was determined by Betaplate liquid scintillation counting. […] Inhibition of DA uptake was performed in duplicate.

[1] = K+ (10 mM) evoked release, rat striatal slices, compounds added at 10^-8 M and 10^-6 M, table does not say which concentration
[2] = rat striatal synaptosomes, 10^-9 to 10^-5 M, read-out: Functional activity re-uptake [^3H]-Dopamine pIC50 (converted)

Fc1ccc2cc(C[C@H]3CCCN3)[nH]c2n1 [Compound 47A, (R)-6-fluoro-2-pyrrolidin-2-ylmethyl-1H-pyrrolo[2,3-b]pyridine]
Functional activity release [^3H]-Dopamine % of control (rat striatal slices; [1]): 137 % of control

Clc1ccc2cc(C3CCCNC3)[nH]c2n1 (centres unmarked) [Compound 32, 6-chloro-2-piperidin-3-yl-1H-pyrrolo[2,3-b]pyridine]
Functional activity release [^3H]-Dopamine % of control (rat striatal slices; [1]): 173 % of control

COc1ccc2cc(C[C@H]3CCCN3)[nH]c2n1 [Compound 49, (R)-6-methoxy-2-pyrrolidin-2-ylmethyl-1H-pyrrolo[2,3-b]pyridine]
Functional activity release [^3H]-Dopamine % of control (rat striatal slices): 160 % of control

c1cnc2[nH]c(C[C@H]3CCCN3)cc2c1 [Compound 39A, (R)-2-pyrrolidin-2-ylmethyl-1H-pyrrolo[2,3-b]pyridine]
Functional activity release [^3H]-Dopamine % of control (rat striatal slices): 151 % of control

c1cnc2cc(C[C@@H]3CCCN3)[nH]c2c1 [Compound 81B, (S)-2-pyrrolidin-2-ylmethyl-1H-pyrrolo[3,2-b]pyridine]
Functional activity release [^3H]-Dopamine % of control (rat striatal slices): 120 % of control

CC(NC(C)(C)C)C(=O)c1cccc(Cl)c1 (centres unmarked) [bupropion, reference compound]
Functional activity release [^3H]-Dopamine % of control (rat striatal slices; [1]): 124 % of control
IC50 (dopamine uptake sites; [2]): 3.98 µM

Clc1ccc2cc([C@@H]3CCCNC3)[nH]c2n1 [Compound 32B, (R)-6-chloro-2-piperidin-3-yl-1H-pyrrolo[2,3-b]pyridine]
Functional activity release [^3H]-Dopamine % of control (rat striatal slices; [1]): 170 % of control
IC50 (dopamine uptake sites): 0.398 µM

c1cnc2cc(C[C@H]3CCCN3)[nH]c2c1 [Compound 81A, (R)-2-pyrrolidin-2-ylmethyl-1H-pyrrolo[3,2-b]pyridine]
Functional activity release [^3H]-Dopamine % of control (rat striatal slices): 153 % of control

O=c1cccc2n1C[C@@H]1CNC[C@H]2C1 [cytisine, reference compound]
Functional activity release [^3H]-Dopamine % of control (rat striatal slices; [1]): 136 % of control
IC50 (dopamine uptake sites): > 10 µM

c1cnc2[nH]cc(C3CCCNC3)c2c1 (centres unmarked) [Compound 6, 3-piperidin-3-yl-1 H-pyrrolo[2,3-b]pyridine]
Functional activity release [^3H]-Dopamine % of control (rat striatal slices; [1]): 139 % of control
IC50 (dopamine uptake sites): 3.98 µM

CN1CCCC1c1cccnc1 (centres unmarked) [nicotine, reference compound]
Functional activity release [^3H]-Dopamine % of control (rat striatal slices; [1]): 180 % of control
IC50 (dopamine uptake sites): > 10 µM

c1cnc2[nH]c(C[C@@H]3CCCN3)cc2c1 [Compound 39B, (S)-2-pyrrolidin-2-ylmethyl-1H-pyrrolo[2,3-b]pyridine]
Functional activity release [^3H]-Dopamine % of control (rat striatal slices; [1]): 133 % of control

c1cnc2[nH]cc(C[C@H]3CCCN3)c2c1 (stereo in doubt) [Compound 96, (R)-3-pyrrolidin-2-ylmethyl-1H-pyrrolo-[2,3-b]pyridine, reference compound]
Functional activity release [^3H]-Dopamine % of control (rat striatal slices): 124 % of control

Brc1cnc2[nH]c(C[C@H]3CCCN3)cc2c1 [Compound 52A, (R)-5-bromo-2-pyrrolidin-2-ylmethyl-1H-pyrrolo[2,3-b]pyridine]
Functional activity release [^3H]-Dopamine % of control (rat striatal slices): 135 % of control

CN1CCC[C@@H]1Cc1c[nH]c2ncccc12 (stereo in doubt) [Compound 98, reference compound]
Functional activity release [^3H]-Dopamine % of control (rat striatal slices; [1]): 132 % of control
IC50 (dopamine uptake sites; [2]): > 10 µM

Clc1ccc2cc(C[C@H]3CCCN3)[nH]c2n1 [Compound 45A, (R)-6-chloro-2-pyrrolidin-2-ylmethyl-1H-pyrrolo[2,3-b]pyridine]
Functional activity release [^3H]-Dopamine % of control (rat striatal slices; [1]): 115 % of control

Clc1ccc2cc(C[C@@H]3CCCN3)[nH]c2n1 [Compound 45B, (S)-6-chloro-2-pyrrolidin-2-ylmethyl-1H-pyrrolo[2,3-b]pyridine]
Functional activity release [^3H]-Dopamine % of control (rat striatal slices; [1]): 153 % of control
IC50 (dopamine uptake sites; [2]): 2.51 µM

c1cnc2[nH]c([C@@H]3CCNC3)cc2c1 [Compound 78B, (R)-2-pyrrolidin-3-yl-1H-pyrrolo[2,3-b]pyridine]
Functional activity release [^3H]-Dopamine % of control (rat striatal slices; [1]): 187 % of control
IC50 (dopamine uptake sites; [2]): 1.58 µM

CN1CCC[C@H]1Cc1c[nH]c2ncccc12 (stereo in doubt) [Compound 99, reference compound]
Functional activity release [^3H]-Dopamine % of control (rat striatal slices; [1]): 112 % of control

c1cnc2c(C[C@H]3CCCN3)c[nH]c2c1 [Compound 88, (R)-3-pyrrolidin-2-ylmethyl-1H-pyrrolo[3,2-b]pyridine]
Functional activity release [^3H]-Dopamine % of control (rat striatal slices; [1]): 110 % of control
IC50 (dopamine uptake sites; [2]): 7.94 µM

c1cnc2[nH]c([C@@H]3CCCNC3)cc2c1 [Compound 26B, (R)-2-piperidin-3-yl-1H-pyrrolo[2,3-b]pyridine]
Functional activity release [^3H]-Dopamine % of control (rat striatal slices; [1]): 121 % of control
IC50 (dopamine uptake sites): 0.631 µM

Brc1ccc2cc(C[C@@H]3CCCN3)[nH]c2n1 [Compound 46B, (S)-6-bromo-2-pyrrolidin-2-ylmethyl-1H-pyrrolo[2,3-b]pyridine]
Functional activity release [^3H]-Dopamine % of control (rat striatal slices; [1]): 123 % of control

CN1CCC[C@@H]1Cc1cc2cccnc2[nH]1 [Compound 41A, (R)-2-(1-Methyl-pyrrolidin-2-ylmethyl)-1H-pyrrolo[2,3-b]pyridine]
Functional activity release [^3H]-Dopamine % of control (rat striatal slices; [1]): 100 % of control

Fc1ccc2cc(C[C@@H]3CCCN3)[nH]c2n1 [Compound 47B, (S)-6-fluoro-2-pyrrolidin-2-ylmethyl-1H-pyrrolo[2,3-b]pyridine]
Functional activity release [^3H]-Dopamine % of control (rat striatal slices; [1]): 128 % of control
IC50 (dopamine uptake sites; [2]): 3.98 µM

COc1ccc2[nH]c(C[C@H]3CCCN3)cc2n1 [Compound 85, (R)-5-methoxy-2-pyrrolidin-2-ylmethyl-1H-pyrrolo[3,2-b]pyridine]
Functional activity release [^3H]-Dopamine % of control (rat striatal slices): 131 % of control

Brc1ccc2cc(C[C@H]3CCCN3)[nH]c2n1 [Compound 46A, (R)-6-bromo-2-pyrrolidin-2-ylmethyl-1H-pyrrolo[2,3-b]pyridine]
Functional activity release [^3H]-Dopamine % of control (rat striatal slices; [1]): 92 % of control

c1cnc2cc(C3CCNC3)[nH]c2c1 (centres unmarked) [Compound 79, 2-pyrrolidin-3-yl-1H-pyrrolo[3,2-b]pyridine]
Functional activity release [^3H]-Dopamine % of control (rat striatal slices; [1]): 119 % of control
IC50 (dopamine uptake sites; [2]): 6.31 µM

c1cnc2[nH]c([C@H]3CCNC3)cc2c1 [Compound 78A, (S)-2-pyrrolidin-3-yl-1H-pyrrolo[2,3-b]pyridine]
Functional activity release [^3H]-Dopamine % of control (rat striatal slices; [1]): 109 % of control
IC50 (dopamine uptake sites; [2]): 3.98 µM

c1cnc2[nH]c(C3CCNC3)cc2c1 (centres unmarked) [Compound 78, 2-pyrrolidin-3-yl-1H-pyrrolo[2,3-b]pyridine]
Functional activity release [^3H]-Dopamine % of control (rat striatal slices; [1]): 154 % of control
IC50 (dopamine uptake sites; [2]): 2 µM

c1cnc2[nH]c([C@H]3CCCNC3)cc2c1 [Compound 26A, (S)-2-piperidin-3-yl-1H-pyrrolo[2,3-b]pyridine]
Functional activity release [^3H]-Dopamine % of control (rat striatal slices; [1]): 139 % of control
IC50 (dopamine uptake sites; [2]): 2.51 µM

Clc1ccc2c(C3CCCNC3)c[nH]c2n1 (centres unmarked) [Compound 13, 6-chloro-3-piperidin-3-yl-1 H-pyrrolo[2,3-b]pyridine]
Functional activity release [^3H]-Dopamine % of control (rat striatal slices; [1]): 174 % of control
IC50 (dopamine uptake sites; [2]): 1.58 µM
